According to patent US20180284095A1, “BIOMARKERS ASSOCIATED WITH LSD1 INHIBITORS AND USES THEREOF” (Oryzon Genomics, S.A., priority 2015, published 2018):

What was measured:
S100A8 = assay: Microarray gene expression in brain, spleen and liver of Hsd:Athymic Nude-Foxn1nu mice (Example 7); assay type: in vivo, mouse
Method: (§1) Total RNA was extracted from samples using the RNeasy extraction kit (Qiagen). The quality and concentration of the RNA was analyzed using the Agilent 2100 bioanalyzer and NanoDrop™ ND-1000 (Thermo Scientific). Samples with RNA integrity number (RIN)<6.0 were discarded. Total RNA (0.5 μg) amplification and labelling with Cy3 or Cy5 was carried out using the Eberwein mRNA amplification procedure (Van Gelder et al, Proc Natl Acad Sci USA 1990, 87:1663-1667) employing the MessageAmp™ aRNA amplification kit from Ambion (Applied Biosystems) following the manufacturer's instructions with minor modifications. As hybridization controls, plant mRNAs were transcribed from a plasmid containing the Zea mays Xet (xyloglucan endo-transglycosylase) cDNA and from a plasmid containing the Zea mays Zmmyb42 cDNA, independently prepared Cy3 and Cy5 labelled aRNA from these two RNAs using the Eberwein mRNA amplification procedure (as disclosed in Cerdà et al, Gen Comp Endocrinol 2008, 156:470-481).
(§2) The Cy3- and Cy5-labelled cRNAs and spikes were combined and hybridized to the microarray described in Example 2.6 for 17 h at 60° C. using Agilent's gaskets G2534-60002, G2534A hybridization chambers and DNA Hybridization Oven G2545A, according to the manufacturer's instructions. More specifically, equal amounts of Cy3 and Cy5 labeled Xet aRNA as well as equal amounts of Cy3 and Cy5 labeled Zmmyb42 aRNA were spiked into each mixture hybridized to the array. Arrays were washed and raw data were obtained using Agilent's DNA Microarray Scanner G2505B and Feature Extraction software (v10.1). The raw fluorescence intensity data were processed using applicant's proprietary software, and consists in the following operations:
(§3) Data normalization was carried out by an improved version of the nonlinear Q-splines normalization method (Workman et al., Genome Biol 2002, 3(9):research0048.1-0048.16). Normalization results were presented graphically as MA plots, as first described by Dudoit et al (Dudoit et al, Statistica Sinica, 2002, 12:111-139). Each point corresponds to a probe of the DNA array. M values (vertical axis) are the log-differential expression ratios. A values (horizontal axis) are the log-intensities of the spots. M and A are calculated from the Cy5 and Cy3 intensity values as of each spot. The DNA Array data is normalized using an improved version of non-linear Q-Splines normalization described by Workman et al., Genome Biol 2002, 3(9):research0048.1-0048.16. This process is useful to correct the deviation of the M values from the statistical assumption that most of the spots have M=0 in MA plots. The method allows the adjustment of all M values to form a cloud centered at M=0 in all intensity ranges. The data used to calculate the normalization fitting curve is the totality of the raw measurement dataset, excluding the signals for the probes for the spiked-in plant RNA controls and negative controls. In order to be able to normalize properly the data among all the experiments, the probe-set must include an important group of genes that should have no change (M=0) in the experiment. The normalization function is then applied to all the data, including controls.
(§4) Normalized and log-transformed data were used to calculate log 2 (sample/control) and Fold Change (FC) values. No background subtraction was applied to the signal intensity values during data processing, permitting robust selection of differentially expressed genes with low expression levels at the cost of potential sub-estimation of change when intensity levels are close to the array background level.
(§5) Powered Compound 3, 4 or 5 was dissolved in a 20% solution of 2-hydroxypropyl-R-cyclodextrin in water at the appropriate concentrations, vortexed and placed in an ultrasonic bath for 5 minutes.
(§6) Hsd:Athymic Nude-Foxn1nu mice were maintained in air- and temperature-controlled cages with regular supply of water and food. A maximum of 6 mice/cage were raised. […]

S100A9 = assay: as above; assay type: in vivo, mouse
Method: as §1, §2, §3, §4, §5, §6

[1] = SPLEEN, S100A8, 10 mg/kg vs VEH
[2] = SPLEEN, S100A9, 10 mg/kg vs VEH

Structure (SMILES): NC(=O)CN[C@H]1C[C@@H]1c1ccc(OCc2ccccc2)cc1 (racemic) [Compound 3, 2-(((trans)-2-(4-(benzyloxy)phenyl)cyclopropyl)amino)acetamide]
- Hybridization signal sample_Cy5 (S100A8; BRAIN, S100A8, 5 mg/kg): 229.714
- log2 (sample/control) (S100A8; BRAIN, S100A8, 5 mg/kg vs VEH): −0.116
- Hybridization signal sample_Cy5 (S100A8; BRAIN, S100A8, 10 mg/kg): 185.235
- log2 (sample/control) (S100A8; BRAIN, S100A8, 10 mg/kg vs VEH): −0.3304
- Hybridization signal sample_Cy5 (S100A8; BRAIN, S100A8, 20 mg/kg): 108.854
- log2 (sample/control) (S100A8; BRAIN, S100A8, 20 mg/kg vs VEH): −1.218
- Hybridization signal sample_Cy5 (S100A8; BRAIN, S100A8, 40 mg/kg): 89.5415
- log2 (sample/control) (S100A8; BRAIN, S100A8, 40 mg/kg vs VEH): −1.598
- Hybridization signal sample_Cy5 (S100A8; LIVER, S100A8, 5 mg/kg): 250.202
- log2 (sample/control) (S100A8; LIVER, S100A8, 5 mg/kg vs VEH): −1.371
- Hybridization signal sample_Cy5 (S100A8; LIVER, S100A8, 10 mg/kg): 280.387
- log2 (sample/control) (S100A8; LIVER, S100A8, 10 mg/kg vs VEH): −1.1185
- Hybridization signal sample_Cy5 (S100A8; LIVER, S100A8, 20 mg/kg): 266.01
- log2 (sample/control) (S100A8; LIVER, S100A8, 20 mg/kg vs VEH): −1.318
- Hybridization signal sample_Cy5 (S100A8; LIVER, S100A8, 40 mg/kg): 161.23
- log2 (sample/control) (S100A8; LIVER, S100A8, 40 mg/kg vs VEH): −2.177
- Hybridization signal sample_Cy5 (S100A8; SPLEEN, S100A8, 5 mg/kg): 4533.52
- log2 (sample/control) (S100A8; SPLEEN, S100A8, 5 mg/kg vs VEH): −1.181
- Hybridization signal sample_Cy5 (S100A8; SPLEEN, S100A8, 10 mg/kg): 6342.81
- log2 (sample/control) (S100A8; [1]): −0.4706
- Hybridization signal sample_Cy5 (S100A8; SPLEEN, S100A8, 20 mg/kg): 7014.94
- log2 (sample/control) (S100A8; SPLEEN, S100A8, 20 mg/kg vs VEH): −0.5296
- Hybridization signal sample_Cy5 (S100A8; SPLEEN, S100A8, 40 mg/kg): 4802.3
- log2 (sample/control) (S100A8; SPLEEN, S100A8, 40 mg/kg vs VEH): −1.65
- Hybridization signal sample_Cy5 (S100A9; BRAIN, S100A9, 5 mg/kg): 756.846
- log2 (sample/control) (S100A9; BRAIN, S100A9, 5 mg/kg vs VEH): 0.1106
- Hybridization signal sample_Cy5 (S100A9; BRAIN, S100A9, 10 mg/kg): 465.025
- log2 (sample/control) (S100A9; BRAIN, S100A9, 10 mg/kg vs VEH): −0.5589
- Hybridization signal sample_Cy5 (S100A9; BRAIN, S100A9, 20 mg/kg): 268.93
- log2 (sample/control) (S100A9; BRAIN, S100A9, 20 mg/kg vs VEH): −1.388
- Hybridization signal sample_Cy5 (S100A9; BRAIN, S100A9, 40 mg/kg): 208.488
- log2 (sample/control) (S100A9; BRAIN, S100A9, 40 mg/kg vs VEH): −1.798
- Hybridization signal sample_Cy5 (S100A9; LIVER, S100A9, 5 mg/kg): 820.026
- log2 (sample/control) (S100A9; LIVER, S100A9, 5 mg/kg vs VEH): −1.469
- Hybridization signal sample_Cy5 (S100A9; LIVER, S100A9, 10 mg/kg): 841.06
- log2 (sample/control) (S100A9; LIVER, S100A9, 10 mg/kg vs VEH): −1.41
- Hybridization signal sample_Cy5 (S100A9; LIVER, S100A9, 20 mg/kg): 862.896
- log2 (sample/control) (S100A9; LIVER, S100A9, 20 mg/kg vs VEH): −1.44
- Hybridization signal sample_Cy5 (S100A9; LIVER, S100A9, 40 mg/kg): 412.209
- log2 (sample/control) (S100A9; LIVER, S100A9, 40 mg/kg vs VEH): −2.571
- Hybridization signal sample_Cy5 (S100A9; SPLEEN, S100A9, 5 mg/kg): 10802.4
- log2 (sample/control) (S100A9; SPLEEN, S100A9, 5 mg/kg vs VEH): −1.213
- Hybridization signal sample_Cy5 (S100A9; SPLEEN, S100A9, 10 mg/kg): 15182.8
- log2 (sample/control) (S100A9; [2]): −0.5812
- Hybridization signal sample_Cy5 (S100A9; SPLEEN, S100A9, 20 mg/kg): 15717.4
- log2 (sample/control) (S100A9; SPLEEN, S100A9, 20 mg/kg vs VEH): −0.5179
- Hybridization signal sample_Cy5 (S100A9; SPLEEN, S100A9, 40 mg/kg): 13461.8
- log2 (sample/control) (S100A9; SPLEEN, S100A9, 40 mg/kg vs VEH): −1.719

Structure (SMILES): CN1CCN(C(=O)CN[C@H]2C[C@@H]2c2ccc(OCc3ccccc3)cc2)CC1 (racemic) [Compound 4, 2-(((trans)-2-(4-(benzyloxy)phenyl)cyclopropyl)amino)-1-(4-methylpiperazin-1-yl)ethan-1-one]
- Hybridization signal sample_Cy5 (S100A8; BRAIN, S100A8, 1 mg/kg): 106.74
- log2 (sample/control) (S100A8; BRAIN, S100A8, 1 mg/kg vs VEH): −1.761
- Hybridization signal sample_Cy5 (S100A8; BRAIN, S100A8, 3 mg/kg): 65.756
- log2 (sample/control) (S100A8; BRAIN, S100A8, 3 mg/kg vs VEH): −2.35
- Hybridization signal sample_Cy5 (S100A8; BRAIN, S100A8, 10 mg/kg): 46.781
- log2 (sample/control) (S100A8; BRAIN, S100A8, 10 mg/kg vs VEH): −3.042
- Hybridization signal sample_Cy5 (S100A8; LIVER, S100A8, 1 mg/kg): 220.788
- log2 (sample/control) (S100A8; LIVER, S100A8, 1 mg/kg vs VEH): −0.8718
- Hybridization signal sample_Cy5 (S100A8; LIVER, S100A8, 3 mg/kg): 211.114
- log2 (sample/control) (S100A8; LIVER, S100A8, 3 mg/kg vs VEH): −1.181
- Hybridization signal sample_Cy5 (S100A8; LIVER, S100A8, 10 mg/kg): 172.461
- log2 (sample/control) (S100A8; LIVER, S100A8, 10 mg/kg vs VEH): −1.335
- Hybridization signal sample_Cy5 (S100A8; SPLEEN, S100A8, 1 mg/kg): 6016.2
- log2 (sample/control) (S100A8; SPLEEN, S100A8, 1 mg/kg vs VEH): −1.312
- Hybridization signal sample_Cy5 (S100A8; SPLEEN, S100A8, 3 mg/kg): 1854.43
- log2 (sample/control) (S100A8; SPLEEN, S100A8, 3 mg/kg vs VEH): −3.148
- Hybridization signal sample_Cy5 (S100A8; SPLEEN, S100A8, 10 mg/kg): 1214.31
- log2 (sample/control) (S100A8; [1]): −3.587
- Hybridization signal sample_Cy5 (S100A9; BRAIN, S100A9, 1 mg/kg): 306.245
- log2 (sample/control) (S100A9; BRAIN, S100A9, 1 mg/kg vs VEH): −2.143
- Hybridization signal sample_Cy5 (S100A9; BRAIN, S100A9, 3 mg/kg): 132.716
- log2 (sample/control) (S100A9; BRAIN, S100A9, 3 mg/kg vs VEH): −3.286
- Hybridization signal sample_Cy5 (S100A9; BRAIN, S100A9, 10 mg/kg): 78.7372
- log2 (sample/control) (S100A9; BRAIN, S100A9, 10 mg/kg vs VEH): −4.222
- Hybridization signal sample_Cy5 (S100A9; LIVER, S100A9, 1 mg/kg): 666.426
- log2 (sample/control) (S100A9; LIVER, S100A9, 1 mg/kg vs VEH): −1.192
- Hybridization signal sample_Cy5 (S100A9; LIVER, S100A9, 3 mg/kg): 490.218
- log2 (sample/control) (S100A9; LIVER, S100A9, 3 mg/kg vs VEH): −1.632
- Hybridization signal sample_Cy5 (S100A9; LIVER, S100A9, 10 mg/kg): 386.758
- log2 (sample/control) (S100A9; LIVER, S100A9, 10 mg/kg vs VEH): −1.928
- Hybridization signal sample_Cy5 (S100A9; SPLEEN, S100A9, 1 mg/kg): 13748.6
- log2 (sample/control) (S100A9; SPLEEN, S100A9, 1 mg/kg vs VEH): −1.579
- Hybridization signal sample_Cy5 (S100A9; SPLEEN, S100A9, 3 mg/kg): 3824.62
- log2 (sample/control) (S100A9; SPLEEN, S100A9, 3 mg/kg vs VEH): −3.541
- Hybridization signal sample_Cy5 (S100A9; SPLEEN, S100A9, 10 mg/kg): 2502.64
- log2 (sample/control) (S100A9; [2]): −4.161
